Drawing on patent publication USRE49080E1, “Glycoside derivatives and uses thereof” (Novartis AG, priority 2009, dated 2022), this text covers IC50 for 22 molecules.

The target in test [1] is human SGLT1 (Homo sapiens (Human), UniProt P13866). The test can be described thus: SGLT1 assay: analogous test with hSGLT1 cDNA expressed in CHO-K1 or HEK293 cells. The settings on record: n = 1-4; 14C-AMG uptake, cells expressing hSGLT1. Type of test: cell-based. The protocol:
(§1) The SGLT-2 assay is carried out as follows: CHO-hSGLT2 cells are cultivated in Ham's F12 Medium (BioWhittaker) with 10% foetal calf serum and 250 μg/mL zeocin (Invitrogen), and HEK293-hSGLT2 cells are cultivated in DMEM medium with 10% foetal calf serum and 250 μg/mL zeocin (Invitrogen). The cells are detached from the culture flasks by washing twice with PBS and subsequently treating with trypsin/EDTA. After the addition of cell culture medium the cells are centrifuged, resuspended in culture medium and counted in a Casy cell counter. Then 40,000 cells per well are seeded into a white, 96-well plate coated with poly-D-lysine and incubated overnight at 37° C., 5% CO2. The cells are washed twice with 250 μl of assay buffer (Hanks Balanced Salt Solution, 137 mM NaCl, 5.4 mM KCl, 2.8 mM CaCl2, 1.2 mM MgSO4 and 10 mM HEPES (pH 7.4), 50 μg/mL of gentamycin). 250 μl of assay buffer and 5 μl of test compound are then added to each well and the plate is incubated for a further 15 minutes in the incubator. 5 μl of 10% DMSO are used as the negative control. The reaction is started by adding 5 μl of 14 C-AMG (0.05 μCi) to each well. After 2 hours' incubation at 37° C., 5% CO2, the cells are washed again with 250 μl of PBS […] and then lysed by the addition of 25 μl of 0.1 N NaOH (5 min. at 37° C.). 200 μl of MicroScint20 (Packard) are added to each well and incubation is continued for a further 20 min at 37° C. After this incubation the radioactivity of the 14 C-AMG absorbed is measured in a Topcount (Packard) using a 14 C scintillation program.
To determine the selectivity with respect to human SGLT1 an analogous test is set up in which the cDNA for hSGLTI (Genbank Ace. No. NM000343) instead of hSGLT2 cDNA is expressed in CHO-K1 or HEK293 cells.

The target of test [2] is human sodium glucose co-transporter 2 (Homo sapiens (Human), UniProt P31639). The test can be described thus: SGLT-2 assay: 14C-AMG uptake in CHO-hSGLT2 or HEK-hSGLT2 cells. Type of test: cell-based. Conditions: n = 1-4, cells stably transfected with hSGLT2, read-out: SGLT2 IC50 nM (n = 1-4). The protocol:
These cell lines transport 14 C-labelled alpha-methyl-glucopyranoside (14 C-AMG, Amersham) into the interior of the cell in sodium-dependent manner.
as §1

Sequence of human sodium glucose co-transporter 2 (P31639 whole entry): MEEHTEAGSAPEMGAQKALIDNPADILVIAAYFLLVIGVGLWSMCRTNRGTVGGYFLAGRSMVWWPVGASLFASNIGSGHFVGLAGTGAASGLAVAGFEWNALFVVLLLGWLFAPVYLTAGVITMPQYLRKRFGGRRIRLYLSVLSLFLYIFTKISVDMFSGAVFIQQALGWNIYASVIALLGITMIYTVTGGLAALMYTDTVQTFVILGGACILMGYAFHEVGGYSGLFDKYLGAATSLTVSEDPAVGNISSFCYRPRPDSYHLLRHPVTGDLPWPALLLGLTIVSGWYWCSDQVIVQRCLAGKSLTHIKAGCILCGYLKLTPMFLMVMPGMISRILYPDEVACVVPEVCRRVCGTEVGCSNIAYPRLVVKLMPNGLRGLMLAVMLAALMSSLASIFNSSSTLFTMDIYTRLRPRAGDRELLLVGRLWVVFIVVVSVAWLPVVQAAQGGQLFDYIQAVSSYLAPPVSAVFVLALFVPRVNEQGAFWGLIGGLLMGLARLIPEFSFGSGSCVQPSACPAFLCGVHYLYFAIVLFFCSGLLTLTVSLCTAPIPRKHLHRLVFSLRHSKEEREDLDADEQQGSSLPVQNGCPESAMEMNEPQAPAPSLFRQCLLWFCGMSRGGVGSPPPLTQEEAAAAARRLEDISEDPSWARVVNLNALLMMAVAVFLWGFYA
Sequence of human SGLT1 (P13866 whole entry): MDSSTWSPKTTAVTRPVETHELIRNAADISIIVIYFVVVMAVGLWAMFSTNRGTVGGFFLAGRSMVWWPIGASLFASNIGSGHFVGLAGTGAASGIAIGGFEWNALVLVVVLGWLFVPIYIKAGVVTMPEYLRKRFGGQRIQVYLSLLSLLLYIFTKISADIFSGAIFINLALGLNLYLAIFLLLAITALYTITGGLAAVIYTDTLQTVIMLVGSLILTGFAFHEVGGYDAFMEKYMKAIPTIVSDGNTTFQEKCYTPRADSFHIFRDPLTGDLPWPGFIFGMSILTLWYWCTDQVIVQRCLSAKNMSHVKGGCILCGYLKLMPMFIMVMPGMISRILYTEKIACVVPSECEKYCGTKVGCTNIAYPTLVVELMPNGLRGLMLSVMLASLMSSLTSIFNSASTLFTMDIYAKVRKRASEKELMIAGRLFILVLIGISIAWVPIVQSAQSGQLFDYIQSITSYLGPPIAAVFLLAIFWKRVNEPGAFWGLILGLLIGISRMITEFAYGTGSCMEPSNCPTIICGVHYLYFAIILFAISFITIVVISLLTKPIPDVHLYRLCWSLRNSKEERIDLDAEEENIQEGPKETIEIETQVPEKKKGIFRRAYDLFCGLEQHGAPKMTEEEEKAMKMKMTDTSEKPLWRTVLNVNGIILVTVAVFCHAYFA

What is called IC50 is the concentration needed to halve the response being measured. `CN1CCOc2cc(Cc3cc([C@@H]4O[C@H](CO)[C@@H](O)[C@H](O)[C@H]4O)ccc3Cl)ccc21` [Example 1, (2S,3R,4R,5S,6R)-2-[4-Chloro-3-(4-methyl-3,4-dihydro-2H benzo[1,4]oxazin-7-ylmethyl)-phenyl]-6-hydroxymethyl-tetrahydro-pyran-3,4,5-triol]: the values for the IC50 in test [1] and in test [2] were 655 nM and 2.7 nM, respectively.

For the molecule `CCN1CCOc2cc(Cc3cc([C@@H]4O[C@H](CO)[C@@H](O)[C@H](O)[C@H]4O)ccc3Cl)ccc21` [Example 2, (2S,3R,4R,5S,6R)-2-[4-Chloro-3-(4-ethyl-3,4-dihydro-2H-benzo[1,4]oxazin-7-ylmethyl)-phenyl]-6-hydroxymethyl-tetrahydro-pyran-3,4,5-triol], the half-inhibitory concentration (IC50) in test [1] was 2500 nM; in test [2], 11.1 nM.

Turning to `OC[C@H]1O[C@@H](c2ccc(Cl)c(Cc3ccc4c(c3)OCCN4C3CC3)c2)[C@H](O)[C@@H](O)[C@@H]1O` [Example 3, (2S,3R,4R,5S,6R)-2-[4-Chloro-3-(4-cyclopropyl-3,4-dihydro-2Hbenzo[1,4]oxazin-7ylmethyl)-phenyl]-6-hydroxymethyltetrahydropyran3,4,5-triol], in test [2], the IC50 worked out at 16 nM.

With `OC[C@H]1O[C@@H](c2ccc(Cl)c(Cc3ccc4c(c3)N(Cc3ccccc3)CCO4)c2)[C@H](O)[C@@H](O)[C@@H]1O` [Example 4, (2S,3R,4R,5S,6R)-2-[3-(4-Benzyl-3,4-dihydro-2H-benzo[1,4]oxazin-6-ylmethyl)-4-chloro-phenyl]-6-hydroxymethyl-tetrahydro-pyran-3,4,5-triol], in test [2], the IC50 was 65 nM.

`OC[C@H]1O[C@@H](c2ccc(Cl)c(Cc3ccc4c(c3)NCCO4)c2)[C@H](O)[C@@H](O)[C@@H]1O` [Example 8, (2S,3R,4R,5S,6R)-2-[4-Chloro-3-(3,4-dihydro-2H-benzo[1,4]oxazin-6-ylmethyl)-phenyl]-6-hydroxymethyl-tetrahydro-pyran-3,4,5-triol]: the IC50 was 725 nM in test [1] and 0.25 nM in test [2].

Regarding `CCN1CCOc2ccc(Cc3cc([C@@H]4O[C@H](CO)[C@@H](O)[C@H](O)[C@H]4O)ccc3Cl)cc21` [Example 9, (2S,3R,4R,5S,6R)-2-[4-Chloro-3-(4-ethyl-3,4-dihydro-2H-benzo[1,4]oxazin-6-ylmethyl)-phenyl]-6-hydroxymethyl-tetrahydro-pyran-3,4,5-triol], the IC50 in test [2] was 7.2 nM.

Take `OC[C@H]1O[C@@H](c2ccc(Cl)c(Cc3ccc4c(c3)N(CC3CC3)CCO4)c2)[C@H](O)[C@@H](O)[C@@H]1O` [Example 10, (2S,3R,4R,5S,6R)-2-[4-Chloro-3-(4-cyclopropylmethyl-3,4-dihydro-2H-benzo[1,4]oxazin-6-ylmethyl)-phenyl]-6-hydroxymethyl-tetrahydro-pyran-3,4,5-triol]: the IC50 in test [2] was 18 nM.

As for `COc1ccc(CN2CCCc3cc(Cc4cc([C@@H]5O[C@H](CO)[C@@H](O)[C@H](O)[C@H]5O)ccc4Cl)ccc32)cc1` [Example 14, (2S,3R,4R,5S,6R)-2-{4-Chloro-3-[1-(4-methoxy-benzyl)-1,2,3,4-tetrahydro-quinolin-6-ylmethyl]-phenyl}-6-hydroxymethyl-tetrahydro-pyran-3,4,5-triol], the concentration for half-maximal inhibition (IC50) in test [1] is 800 nM; in test [2], 5.5 nM.

In the case of `OC[C@H]1O[C@@H](c2ccc(Cl)c(Cc3ccc4c(c3)CCCN4)c2)[C@H](O)[C@@H](O)[C@@H]1O` [Example 15, (2S,3R,4R,5S,6R)-2-[4-Chloro-3-(1,2,3,4-tetrahydro-quinolin-6-ylmethyl)-phenyl]-6-hydroxymethyl-tetrahydro-pyran-3,4,5-triol], the values for the IC50 in test [1] and in test [2] were 650 nM and 0.2 nM, respectively.

In the case of `OC[C@H]1O[C@@H](c2ccc(Cl)c(Cc3ccc4c(c3)NCCC4)c2)[C@H](O)[C@@H](O)[C@@H]1O` [Example 16, (2S,3R,4R,5S,6R)-2-[4-Chloro-3-(1,2,3,4-tetrahydro-quinolin-7-ylmethyl)-phenyl]-6-hydroxymethyl-tetrahydro-pyran-3,4,5-triol], the IC50 came out at 750 nM in test [1] and 0.15 nM in test [2].

On to `OC[C@H]1O[C@@H](c2ccc(Cl)c(Cc3ccc4c(c3)CCN4)c2)[C@H](O)[C@@H](O)[C@@H]1O` [Example 17, (2S,3R,4R,5S,6R)-2-[4-Chloro-3-(2,3-dihydro-1H-indol-5-ylmethyl)-phenyl]-6-hydroxymethyl-tetrahydro-pyran-3,4,5-triol], for which the IC50 in test [1] came to 480 nM; in test [2], 0.8 nM.

As for `CC1(C)CNc2cc(Cc3cc([C@@H]4O[C@H](CO)[C@@H](O)[C@H](O)[C@H]4O)ccc3Cl)ccc2O1` [Example 20, (2S,3R,4R,5S,6R)-2-[4-Chloro-3-(2,2-dimethyl-3,4-dihydro-2H-benzo[1,4]oxazin-6-ylmethyl)-phenyl]-6-hydroxymethyl-tetrahydro-pyran-3,4,5-triol], the IC50 in test [1] was greater than 3700 nM; in test [2], 0.55 nM.

Take `OC[C@H]1O[C@@H](c2ccc(Cl)c(Cc3ccc4c(c3)CCCO4)c2)[C@H](O)[C@@H](O)[C@@H]1O` [Example 21, (2S,3R,4R,5S,6R)-2-(4-Chloro-3-chroman-6-ylmethyl-phenyl)-6-hydroxymethyl-tetrahydro-pyran-3,4,5-triol]: the IC50 was determined as 1100 nM in test [1] and 0.2 nM in test [2].

On to `OC[C@H]1O[C@@H](c2ccc(Cl)c(Cc3ccc4c(c3)CCO4)c2)[C@H](O)[C@@H](O)[C@@H]1O` [Example 22, (2S,3R,4R,5S,6R)-2-[4-Chloro-3-(2,3-dihydro-benzofuran-5-ylmethyl)-phenyl]-6-hydroxymethyl-tetrahydro-pyran-3,4,5-triol], for which the IC50 in test [2] was 0.4 nM.

Consider `OC[C@H]1O[C@@H](c2ccc(F)c(Cc3ccc4c(c3)NCCO4)c2)[C@H](O)[C@@H](O)[C@@H]1O` [Example 24, (2S,3R,4R,5S,6R)-2-[3-(3,4-Dihydro-2H-benzo[1,4]oxazin-6-ylmethyl)-4-fluoro-phenyl]-6-hydroxymethyl-tetrahydro-pyran-3,4,5-triol], for which the results for the IC50 in test [1] and in test [2] were 31000 nM and 1.3 nM, respectively.

Regarding `COc1ccc([C@@H]2O[C@H](CO)[C@@H](O)[C@H](O)[C@H]2O)cc1Cc1ccc2c(c1)OCCO2` [Example 25, (2S,3R,4R,5S,6R)-2-[3-(2,3-Dihydro-benzo[1,4]dioxin-6-ylmethyl)-4-methoxy-phenyl]-6-hydroxymethyl-tetrahydro-pyran-3,4,5-triol], the IC50 came out at 40 nM in test [1] and 1.5 nM in test [2].

Turning to `OC[C@H]1O[C@@H](c2ccc(Cl)c(Cc3ccc4c(c3)OCCN4)c2)[C@H](O)[C@@H](O)[C@@H]1O` [Example 28, (2S,3R,4R,5S,6R)-2-[4-Chloro-3-(3,4-dihydro-2H-benzo[1,4]oxazin-7-ylmethyl)-phenyl]-6-hydroxymethyl-tetrahydro-pyran-3,4,5-triol], the IC50 in test [1] is 1000 nM; in test [2], 0.33 nM.

For the molecule `OC[C@H]1O[C@@H](c2ccc(Cl)c(Cc3ccc4c(c3)C3(CCO4)CC3)c2)[C@H](O)[C@@H](O)[C@@H]1O` [Example 29, (2S,3R,4R,5S,6R)-2-[4-Chloro-3-(4,4-spiro-cyclopropyl-chroman-6-ylmethyl)-phenyl]-6-hydroxymethyl-tetrahydro-pyran-3,4,5-triol], the IC50 in test [1] came to 7000 nM; in test [2] it was 84.5 nM.

As for `COc1ccc([C@@H]2O[C@H](CO)[C@@H](O)[C@H](O)[C@H]2O)cc1Cc1ccc2c(c1)NCCO2` [Example 31, (2S,3R,4R,5S,6R)-2-[3-(3,4-Dihydro-2H-benzo[1,4]oxazin-6-ylmethyl)-4-methoxy-phenyl]-6-hydroxymethyl-tetrahydro-pyran-3,4,5-triol], the IC50 in test [1] was 404 nM; in test [2] it was 1.2 nM.

In the case of `OC[C@H]1O[C@@H](c2ccc(OC(F)(F)F)c(Cc3ccc4c(c3)CCCO4)c2)[C@H](O)[C@@H](O)[C@@H]1O` [Example 33, (2S,3R,4R,5S,6R)-2-(3-Chroman-6-ylmethyl-4-trifluoromethoxy-phenyl)-6-hydroxymethyl-tetrahydro-pyran-3,4,5-triol], the IC50 was 157 nM in test [1] and 11 nM in test [2].

Turning to `OC[C@H]1O[C@@H](c2ccc(Cl)c(Cc3ccc4c(c3)C(O)CCO4)c2)[C@H](O)[C@@H](O)[C@@H]1O` (stereo partly drawn) [Example 36, (2S,3R,4R,5S,6R)-2-[4-Chloro-3-(4-hydroxy-chroman-6-ylmethyl)-phenyl]-6-hydroxymethyl-tetrahydro-pyran-3,4,5-triol], in test [2], the IC50 stood at 28 nM.

As to `OC[C@H]1O[C@@H](c2ccc(Cl)c(Cc3ccc4c(c3)CCC3(CCCC3)O4)c2)[C@H](O)[C@@H](O)[C@@H]1O` [Example 38, (2S,3R,4R,5S,6R)-2-[4-Chloro-3-(spiro[chromane-2,1′-cyclopentane]-6-ylmethyl)phenyl]-6-(hydroxymethyl)tetrahydropyran-3,4,5-triol], the IC50 in test [2] turned out to be 14.4 nM.
